Measured values taken from patent US9770026B2, “Substituted pyrimidine compound and uses thereof” (Shenyang Sinochem Agrochemicals R&D Co., Ltd., priority 2012, dated 2017).

Tests used:
[1] = system: armyworm; assay: bioactivity test against armyworm, airbrush spray; assay type: in vivo
[2] = system: wheat powdery mildew; assay: protectant activity in vivo against wheat powdery mildew
[3] = system: Green peach aphids (Myzus Persicae Sulzer); assay: bioactivity test against green peach aphid, airbrush foliar spray; assay type: in vivo
How it was run: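 Death rate was scored at 48 hrs, held at 25±1 C and 60±5% RH, following airbrush foliar spray (0.5 mL, 10 psi) onto cabbage leaf discs bearing about 15-30 aphids. Test solutions: compound dissolved in 1:1 acetone:methanol, brought to concentration with 0.1% tween 80 water.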

[4] = system: carmine spider mite; assay: bioactivity test against carmine spider mite, airbrush spray; assay type: in vivo
How it was run: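 Broadbean seedlings infested with adult mites were sprayed with compound (acetone/methanol stock diluted in 0.1% Tween 80 water) by airbrush at 0.7 kg/cm^2, 0.5 ml. Three replicates were run. Mortality was scored after 72 hrs.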

[5] = system: corn rust; assay: protectant activity in vivo against corn rust
[6] = system: Diamond back moth; assay: insecticidal activity against diamond back moth, airbrush spray; assay type: in vivo; details: mortality after 72 hrs
How it was run: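 Airbrush leaf-disc spray test: both faces of 2 cm cabbage discs received 0.5 ml of test solution at 0.7 kg/cm^2. Solutions were made in acetone:methanol (1:1) and brought to concentration with 0.1% Tween 80 in water. Ten second-instar larvae per disc, triplicates, were held at 25° C and 60˜70% R.H., with mortality recorded at 72 hrs.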

[7] = 2.5 ppm, death rate after 48 hrs
[8] = 10 ppm, death rate after 48 hrs
[9] = 100 ppm, death rate after 48 hrs
[10] = 600 ppm, death rate after 48 hrs
[11] = 100 ppm, mortality after 72 hrs
[12] = 600 ppm, mortality after 72 hrs

Structure (SMILES) | control (test results against armyworm) ([1]; 100 ppm, mortality after 72 h) | control (test results against green peach aphid) [3, 7] | control (test results against green peach aphid) ([3]; 5 ppm, death rate after 48 hrs) | Insecticidal activity against carmine spider mite (% ) ([4]; 2.5 mg/L) | Insecticidal activity against carmine spider mite (% ) ([4]; 5 mg/L) | Insecticidal activity against carmine spider mite (% ) ([4]; 10 mg/L, contrastive test) | Insecticidal activity against carmine spider mite (% ) ([4]; 100 mg/L, contrastive test) | Insecticidal activity against carmine spider mite (% ) ([4]; 600 mg/L, contrastive test) | control against carmine spider mite ([4]; 10 ppm, mortality after 72 hrs) | control (test results against diamond back moth) ([6]; 100 ppm) | control (test results against armyworm) ([1]; 600 ppm, mortality after 72 h) | protectant activity against wheat powdery mildew in vivo ([2]; 100 ppm) | protectant activity against wheat powdery mildew in vivo ([2]; 400 ppm) | Insecticidal activity against peach aphid (%) ([3]; 1.25 mg/L, contrastive test) | Insecticidal activity against peach aphid (%) ([3]; 2.5 mg/L, contrastive test) | Insecticidal activity against peach aphid (%) ([3]; 5 mg/L, contrastive test) | Insecticidal activity against peach aphid (%) ([3]; 10 mg/L, contrastive test) | Insecticidal activity against peach aphid (%) ([3]; 100 mg/L, contrastive test) | Insecticidal activity against peach aphid (%) ([3]; 600 mg/L, contrastive test) | control (test results against green peach aphid) [3, 8] | other results
CCc1ncnc(NCCc2ccc(Oc3ccc(C(F)(F)F)cn3)cc2)c1Cl.Cl [Compound I-6739] | 100% | 100% | 100% | 76% | 93% | 100% | 100% | 100% | 100% | 100% | – | – | – | – | – | – | – | – | – | – | pest or weed control at 600 ppm ([1]; 72 h, 600 ppm, mortality after 72 h): 100%; protectant activity against wheat powdery mildew in vivo ([2]; 25 ppm): 100%; pest or weed control at 6.25 ppm ([2]; Triticum aestivum, 168 h, read-out: protectant activity against wheat powdery mildew in vivo, 6.25 ppm): 80 to 99%; pest or weed control at 100 ppm ([2]; Triticum aestivum, 168 h, read-out: protectant activity against wheat powdery mildew in vivo, 100 ppm): 100%; pest or weed control at 400 ppm ([2]; Triticum aestivum, 168 h, read-out: protectant activity against wheat powdery mildew in vivo, 400 ppm): 100%; pest or weed control at 1.25 µg/mL ([3]; Myzus persicae, foliar, 48 h, 1.25 mg/L, contrastive test, read-out: Insecticidal activity against peach aphid (%)): 100%; pest or weed control at 2.5 µg/mL ([3]; Myzus persicae, foliar, 48 h, 2.5 mg/L, contrastive test, read-out: Insecticidal activity against peach aphid (%)): 100%; pest or weed control at 5 µg/mL ([3]; Myzus persicae, foliar, 48 h, 5 mg/L, contrastive test, read-out: Insecticidal activity against peach aphid (%)): 100%; pest or weed control at 10 µg/mL ([3]; Myzus persicae, foliar, 48 h, 10 mg/L, contrastive test, read-out: Insecticidal activity against peach aphid (%)): 100%; pest or weed control at 100 µg/mL ([3]; Myzus persicae, foliar, 48 h, 100 mg/L, contrastive test, read-out: Insecticidal activity against peach aphid (%)): 100%; pest or weed control at 600 µg/mL ([3]; Myzus persicae, foliar, 48 h, 600 mg/L, contrastive test, read-out: Insecticidal activity against peach aphid (%)): 100%; pest or weed control at 10 ppm ([3]; Myzus persicae, foliar, 48 h, 10 ppm, death rate after 48 hrs): 100%; pest or weed control at 100 ppm ([3]; Myzus persicae, foliar, 48 h, 100 ppm, death rate after 48 hrs): 100%; pest or weed control at 600 ppm ([3]; Myzus persicae, foliar, 48 h, 600 ppm, death rate after 48 hrs): 100%; pest or weed control at 100 ppm ([4]; Tetranychus cinnabarinus, 72 h, 100 ppm, mortality after 72 hrs): 100%; pest or weed control at 600 ppm ([4]; Tetranychus cinnabarinus, 72 h, 600 ppm, mortality after 72 hrs): 100%; pest or weed control at 100 ppm ([5]; Zea mays, 168 h, read-out: protectant activity against corn rust in vivo, 100 ppm): 100%; pest or weed control at 400 ppm ([5]; Zea mays, 168 h, read-out: protectant activity against corn rust in vivo, 400 ppm): 100%; pest or weed control at 600 ppm ([6]; 72 h, 600 ppm, read-out: control (test results against diamond back moth)): 100%
CCc1ncnc(NCCc2ccc(Oc3ccc(C(F)(F)F)cn3)cc2)c1Cl [Compound I-6756] | 100% | 100% | 100% | 71% | 88% | 100% | 100% | 100% | 100% | 100% | 100% | 100% | 100% | 100% | 100% | 100% | 100% | 100% | 100% | 100% | Insecticidal activity against armyworm (%) ([1]; 10 mg/L): 28%; Insecticidal activity against armyworm (%) ([1]; 100 mg/L): 100%; Insecticidal activity against armyworm (%) ([1]; 600 mg/L): 100%; control (test results against green peach aphid) [3, 9]: 100%; control (test results against green peach aphid) [3, 10]: 100%; control against carmine spider mite [4, 11]: 100%; control against carmine spider mite [4, 12]: 100%; protectant activity against corn rust in vivo ([5]; 100 ppm): 100%; protectant activity against corn rust in vivo ([5]; 400 ppm): 100%; control (test results against diamond back moth) ([6]; 600 ppm): 100%
CCc1ncnc(NCCc2ccc(Oc3ccc(C(F)(F)F)cn3)cc2)c1Cl [Compound I-6757] | 100% | 100% | – | 75% | 80% | – | – | – | – | 100% | 100% | 100% | 100% | 100% | 100% | 100% | 100% | 100% | 100% | 100% | pest or weed control at 10 µg/mL ([1]; 72 h, 10 mg/L, read-out: Insecticidal activity against armyworm (%)): 28%; pest or weed control at 100 µg/mL ([1]; 72 h, 100 mg/L, read-out: Insecticidal activity against armyworm (%)): 100%; pest or weed control at 600 µg/mL ([1]; 72 h, 600 mg/L, read-out: Insecticidal activity against armyworm (%)): 100%; control (test results against green peach aphid) [3, 9]: 100%; control (test results against green peach aphid) [3, 10]: 100%; pest or weed control at 5 ppm ([3]; Myzus persicae, foliar, 48 h, 5 ppm, death rate after 48 hrs): 100%; control against carmine spider mite [4, 11]: 100%; control against carmine spider mite [4, 12]: 100%; pest or weed control at 10 µg/mL ([4]; Tetranychus cinnabarinus, 72 h, 10 mg/L, contrastive test, read-out: Insecticidal activity against carmine spider mite (% )): 97%; pest or weed control at 100 µg/mL ([4]; Tetranychus cinnabarinus, 72 h, 100 mg/L, contrastive test, read-out: Insecticidal activity against carmine spider mite (% )): 100%; pest or weed control at 600 µg/mL ([4]; Tetranychus cinnabarinus, 72 h, 600 mg/L, contrastive test, read-out: Insecticidal activity against carmine spider mite (% )): 100%; protectant activity against corn rust in vivo ([5]; 100 ppm): 100%; protectant activity against corn rust in vivo ([5]; 400 ppm): 100%; control (test results against diamond back moth) ([6]; 600 ppm): 100%
